Experimental data published in US9440956B2, “Indole, indazole and benzimidazole arylamides as P2X3 and P2X2/3 antagonists” (Roche Palo Alto LLC, priority 2010, dated 2016).

What was measured:
rat P2X3 receptor = target: T1, rat P2X3 receptor (Rattus norvegicus, UniProt P49654); assay: P2X3 FLIPR (Fluorometric Imaging Plate Reader) assay; format: cell-based; conditions: CHO-K1 cells transfected with cloned rat P2X3; agonist α,β-meATP 1 μM; Fluo-3 calcium fluorescence
T1 construct: expressed in transfected cells; host or cells: CHO-K1
T1 sequence (P49654 1-397): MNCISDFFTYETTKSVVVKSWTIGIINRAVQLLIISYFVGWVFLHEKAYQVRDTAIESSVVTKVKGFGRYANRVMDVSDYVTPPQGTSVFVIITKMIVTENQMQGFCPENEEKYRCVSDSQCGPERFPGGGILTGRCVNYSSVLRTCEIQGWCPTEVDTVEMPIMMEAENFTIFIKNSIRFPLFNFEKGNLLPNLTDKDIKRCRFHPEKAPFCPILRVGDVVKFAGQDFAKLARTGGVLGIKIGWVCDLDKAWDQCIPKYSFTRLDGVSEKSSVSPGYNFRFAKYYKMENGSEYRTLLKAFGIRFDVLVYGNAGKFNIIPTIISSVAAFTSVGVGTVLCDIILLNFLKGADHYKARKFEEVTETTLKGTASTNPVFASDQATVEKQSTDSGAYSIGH
Method: (§1) P2X3/P2X2/3 FLIPR (Fluorometric Imaging Plate Reader) Assay
(§2) CHO-K1 cells were transfected with cloned rat P2X3 or human P2X2/3 receptor subunits and passaged in flasks. 18-24 hours before the FLIPR experiment, cells were released from their flasks, centrifuged, and resuspended in nutrient medium at 2.5×10^5 cells/ml. The cells were aliquoted into black-walled 96-well plates at a density of 50,000 cells/well and incubated overnight in 5% CO2 at 37° C. On the day of the experiment, cells were washed in FLIPR buffer (calcium- and magnesium-free Hank's balanced salt solution, 10 mM HEPES, 2 mM CaCl2, 2.5 mM probenecid; FB). Each well received 100 μl FB and 100 μl of the fluorescent dye Fluo-3 AM [2 μM final conc.]. After a 1 hour dye loading incubation at 37° C., the cells were washed 4 times with FB, and a final 75 μl/well FB was left in each well.
(§3) Test compounds (dissolved in DMSO at 10 mM and serially diluted with FB) or vehicle were added to each well (25 μl of a 4× solution) and allowed to equilibrate for 20 minutes at room temperature. The plates were then placed in the FLIPR and a baseline fluorescence measurement (excitation at 488 nm and emission at 510-570 nm) was obtained for 10 seconds before a 100 μl/well agonist or vehicle addition. The agonist was a 2× solution of α,β-meATP producing a final concentration of 1 μM (P2X3) or 5 μM (P2X2/3). Fluorescence was measured for an additional 2 minutes at 1 second intervals after agonist addition. A final addition of ionomycin (5 μM, final concentration) was made to each well of the FLIPR test plate to establish cell viability and maximum fluorescence of dye-bound cytosolic calcium. Peak fluorescence in response to the addition of α,β-meATP (in the absence and presence of test compounds) was measured and inhibition curves generated using nonlinear regression. PPADS, a standard P2X antagonist, was used as a positive control.

human P2X2/3 receptor = target: T2, human P2X2/3 receptor (Homo sapiens, UniProt P56373+Q9UBL9); assay: P2X2/3 FLIPR (Fluorometric Imaging Plate Reader) assay; format: cell-based; conditions: CHO-K1 cells transfected with human P2X2/3; agonist α,β-meATP 5 μM; Fluo-3 calcium fluorescence
T2 construct: expressed in transfected cells; host or cells: CHO-K1
T2 sequence (Q9UBL9 1-471): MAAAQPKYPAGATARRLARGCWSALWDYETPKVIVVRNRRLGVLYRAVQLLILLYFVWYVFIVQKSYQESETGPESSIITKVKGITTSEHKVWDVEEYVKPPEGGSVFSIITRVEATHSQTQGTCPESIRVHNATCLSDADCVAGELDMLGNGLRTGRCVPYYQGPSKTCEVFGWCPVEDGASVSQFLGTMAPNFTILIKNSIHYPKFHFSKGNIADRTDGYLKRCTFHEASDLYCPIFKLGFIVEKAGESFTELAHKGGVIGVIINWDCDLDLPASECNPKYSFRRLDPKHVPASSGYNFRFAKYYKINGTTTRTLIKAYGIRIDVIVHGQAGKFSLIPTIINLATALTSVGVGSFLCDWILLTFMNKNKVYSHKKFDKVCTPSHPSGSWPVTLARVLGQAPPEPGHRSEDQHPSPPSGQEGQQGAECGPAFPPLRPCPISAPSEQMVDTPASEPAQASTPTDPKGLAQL
T2 sequence (P56373 1-397): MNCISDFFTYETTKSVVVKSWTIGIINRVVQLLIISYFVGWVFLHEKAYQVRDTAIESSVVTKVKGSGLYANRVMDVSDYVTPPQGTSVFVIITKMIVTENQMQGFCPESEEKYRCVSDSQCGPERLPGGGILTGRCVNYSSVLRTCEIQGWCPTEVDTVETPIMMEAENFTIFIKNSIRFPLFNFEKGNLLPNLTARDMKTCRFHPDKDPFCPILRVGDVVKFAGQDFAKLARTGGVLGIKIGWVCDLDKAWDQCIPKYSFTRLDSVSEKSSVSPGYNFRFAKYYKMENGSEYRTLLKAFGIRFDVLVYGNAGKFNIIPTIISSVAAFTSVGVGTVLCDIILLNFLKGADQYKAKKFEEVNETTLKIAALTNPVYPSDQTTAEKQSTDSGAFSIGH
Method: as §1, §2, §3

Structure (SMILES)	pKi P2X3 (rat P2X3 receptor)	pKi P2X2/3 (human P2X2/3 receptor)
Cc1ccc(-n2ncc3c(-c4ccc(C)cn4)cc(C(=O)N[C@@H](C)CO)cc32)cc1 [Compound 17, 4-(5-Methyl-pyridin-2-yl)-1-p-tolyl-1H-indazole-6-carboxylic acid ((S)-2-hydroxy-1-methyl-ethyl)-amide]	7.38	4.97
Cc1ccc(-n2ncc3c(-c4ccc(C)cn4)cc(C(=O)NCc4cnc(C)cn4)cc32)cc1 [Compound 16, 4-(5-Methyl-pyridin-2-yl)-1-p-tolyl-1H-indazole-6-carboxylic acid (5-methyl-pyrazin-2-ylmethyl)-amide]	7.7	6.4
Cc1ccc(-c2cc(C(=O)N[C@@H](C)CO)cc3c2cnn3-c2ccccc2C(C)C)nc1 [Compound 20, 1-(2-Isopropyl-phenyl)-4-(5-methyl-pyridin-2-yl)-1H-indazole-6-carboxylic acid ((S)-2-hydroxy-1-methyl-ethyl)-amide]	7.55	6.19
Cc1ccc(-c2cc(C(=O)NCc3cnc(C)cn3)cc3c2cnn3CC(C)C)nc1 [Compound 1, 1-Isobutyl-4-(5-methyl-pyridin-2-yl)-1H-indazole-6-carboxylic acid (5-methyl-pyrazin-2-ylmethyl)-amide]	7.3	5.78
Cc1ccc(-c2cc(C(=O)NCc3cnc(C)cn3)cc3c2cnn3Cc2ccccc2)nc1 [Compound 9, 1-Benzyl-4-(5-methyl-pyridin-2-yl)-1H-indazole-6-carboxylic acid (5-methyl-pyrazin-2-ylmethyl)-amide]	7.25	6.25
Cc1ccc(-c2cc(C(=O)NCc3cnc(C)cn3)cc3c2cnn3C(C)C)nc1 [Compound 4, 1-Isopropyl-4-(5-methyl-pyridin-2-yl)-1H-indazole-6-carboxylic acid (5-methyl-pyrazin-2-ylmethyl)-amide]	6.58	4.92
Cc1ccc(-c2cc(C(=O)NCc3cnc(C)cn3)cc3c2cnn3-c2ccccc2)nc1 [Compound 14, 4-(5-Methyl-pyridin-2-yl)-1-phenyl-1H-indazole-6-carboxylic acid (5-methyl-pyrazin-2-ylmethyl)-amide]	7.44	6.54
CCCCn1ncc2c(-c3ccc(C)cn3)cc(C(=O)N[C@@H](C)CO)cc21 [Compound 3, 1-Butyl-4-(5-methyl-pyridin-2-yl)-1H-indazole-6-carboxylic acid ((S)-2-hydroxy-1-methyl-ethyl)-amide]	6.31	–
Cc1ccc(-c2cc(C(=O)N[C@@H](C)CO)cc3c2cnn3Cc2ccccc2)nc1 [Compound 10, 1-Benzyl-4-(5-methyl-pyridin-2-yl)-1H-indazole-6-carboxylic acid ((S)-2-hydroxy-1-methyl-ethyl)-amide]	6.2	5.61
Cc1ccc(-c2cc(C(=O)N[C@@H](C)CO)cc3c2cnn3C(C)C)nc1 [Compound 5, 1-Isopropyl-4-(5-methyl-pyridin-2-yl)-1H-indazole-6-carboxylic acid ((S)-2-hydroxy-1-methyl-ethyl)-amide]	–	5
Cc1ccc(-c2cc(C(=O)NCc3cnc(C)cn3)cc3c2cnn3CC(F)(F)F)nc1 [Compound 12, 4-(5-Methyl-pyridin-2-yl)-1-(2,2,2-trifluoro-ethyl)-1H-indazole-6-carboxylic acid (5-methyl-pyrazin-2-ylmethyl)-amide]	6.52	5.7
Cc1ccc(-c2cc(C(=O)N[C@@H](C)CO)cc3c2cnn3-c2ccccc2)nc1 [Compound 15, 4-(5-Methyl-pyridin-2-yl)-1-phenyl-1H-indazole-6-carboxylic acid ((S)-2-hydroxy-1-methyl-ethyl)-amide]	6.19	5.34
Cc1ccc(-c2cc(C(=O)NCc3cnc(C)cn3)cc3c2ncn3CC(C)C)nc1 [Compound 28, 3-Isobutyl-7-(5-methyl-pyridin-2-yl)-3H-benzoimidazole-5-carboxylic acid (5-methyl-pyrazin-2-ylmethyl)-amide]	6.46	–
Cc1ccc(-c2cc(C(=O)N[C@@H](C)CO)cc3c2ncn3CC(C)C)nc1 [Compound 29, 3-Isobutyl-7-(5-methyl-pyridin-2-yl)-3H-benzoimidazole-5-carboxylic acid ((S)-2-hydroxy-1-methyl-ethyl)-amide]	5.24	–

Results, then the compound that gave them:

pKi P2X3 (rat P2X3 receptor)	pKi P2X2/3 (human P2X2/3 receptor)	Structure (SMILES)
7.19	6.51	Cc1ccc(-c2cc(C(=O)NCc3ccc(C)nn3)cc3c2cnn3CC(F)(F)F)nc1 [Compound 13, 4-(5-Methyl-pyridin-2-yl)-1-(2,2,2-trifluoro-ethyl)-1H-indazole-6-carboxylic acid (6-methyl-pyridazin-3-ylmethyl)-amide]
7.66	6.23	Cc1ccc(-c2cc(C(=O)NCc3ccc(C)nn3)cc3c2cnn3CCC(C)C)nc1 [Compound 8, 1-(3-Methyl-butyl)-4-(5-methyl-pyridin-2-yl)-1H-indazole-6-carboxylic acid (6-methyl-pyridazin-3-ylmethyl)-amide]
7.62	6.56	Cc1ccc(-c2cc(C(=O)NCc3ccc(C)nn3)cc3c2cnn3Cc2ccccc2)nc1 [Compound 11, 1-Benzyl-4-(5-methyl-pyridin-2-yl)-1H-indazole-6-carboxylic acid (6-methyl-pyridazin-3-ylmethyl)-amide]
7.17	5.92	Cc1ccc(-c2cc(C(=O)NCc3cnc(C)cn3)cc3c2ccn3CC(C)C)nc1 [Compound 21, 1-Isobutyl-4-(5-methyl-pyridin-2-yl)-1H-indole-6-carboxylic acid (5-methyl-pyrazin-2-ylmethyl)-amide]
6.26	–	Cc1ccc(-c2cc(C(=O)NCc3cnc(C)cn3)cc3c2ccn3C(C)C)nc1 [Compound 26, 1-Isopropyl-4-(5-methyl-pyridin-2-yl)-1H-indole-6-carboxylic acid (5-methyl-pyrazin-2-ylmethyl)-amide]
7.27	5.32	Cc1ccc(-c2cc(C(=O)NCc3ccc(C)nn3)cc3c2ccn3C(C)C)nc1 [Compound 25, 1-Isopropyl-4-(5-methyl-pyridin-2-yl)-1H-indole-6-carboxylic acid (6-methyl-pyridazin-3-ylmethyl)-amide]
5.48	–	Cc1ccc(-c2cc(C(=O)N[C@@H](C)CO)cc3c2ccn3C(C)C)nc1 [Compound 27, 1-Isopropyl-4-(5-methyl-pyridin-2-yl)-1H-indole-6-carboxylic acid ((S)-2-hydroxy-1-methyl-ethyl)-amide]
